This passage reports IC50 results from patent publication US20240092774A1, “HETEROAROMATIC COMPOUNDS AND USES THEREOF” (HUTCHISON MEDIPHARMA LIMITED, priority 2020, published 2024).

In experiment [1] the target is CSF1R phosphorylation in THP-1 cells (Homo sapiens (Human), UniProt P07333). As to the kind of experiment: Detection of CSF1R phosphorylation activity at cell level (p-CSF1R ELISA, M-CSF stimulated THP-1 cells). Type of experiment: cell-based. The procedure: THP-1 (ATCC), human acute monocytic leukemia cells.
3. Treatment of cells and preparation of lysis buffer
5 μL. of the diluted compound was added to the 50 μL cell culture system, the culture was cultured in a 5% CO2, 37° C. cell incubator for 60 min, 300 ng/mL of M-CSF was added to the cells, and the mixture was stimulated in the 37° C. cell incubator for 1 min, added 50 μL of cell lysis buffer, and stored in a refrigerator at −80° C.
100 μL/well of the p-CSF1R capture antibody diluted to 0.8 μg/mL with PBS was added to the ELISA plate, and the plate was coated on a shaker at room temperature overnight. The culture was washed with PBST, and then added blocking solution and incubated at room temperature for 2 h. The culture was washed with PBST, added 90 μL of cell lysis buffer, and incubated on a shaker at 25° C. for 2 h. The plate was washed with PBST three times, added 100 μL of anti-p-tyrosine-HRP detection antibody diluted with 0.1% PBS-BSA diluent, and incubated on a shaker at 25° C. for 2 h. The plate was washed with PBST washing liquid, added 100 μL of chromogenic substrate and incubated at room temperature for 10-20 min. The reaction was stopped by adding 50 μL of 2N H2SO4. The optical density signal (450/570 nm) of each well was detected in Labsystems Multiskan K3 or Envision.
wherein • Drug-treated well read-out: indicating the optical density signal of a cell well with the test compound treatment. • Background read-out: indicating the optical density signal of a well without cells but with cell lysis buffer. • Cell well read-out: indicating the optical density signal of a cell well not treated with the compound.
6. Calculation of IC50: obtained by using XL-Fit 5.3 software, […]
Background: An ELISA detects its analyte on a solid surface through an enzyme-linked reagent.

Experiment [2] addresses Recombinant human CSF1R kinase (Homo sapiens (Human), UniProt P07333). Put plainly: Measurement of CSF1R kinase activity at molecular level (Z-LYTE). In kind it is biochemical. To be noted: Z-LYTE Tyr 1 peptide. As to the method: Invitrogen, PV3227; • Development reagent B: Invitrogen, PV3295; • Development buffer: Invitrogen. P3127; • Stopping solution: Invitrogen, P3094; • Recombinant human CSF1R kinase: Invitrogen, P[…]; • 384 well plate, black: Corning. 3575; • Envision: Perkin Elmer. 2. […] The test compound was diluted in gradient to 4-fold the reaction concentration and the concentration of DMSO was kept at 8%. […] The mixture was mixed gently with a pipette. • 4) A phosphorylated peptide substrate solution (PP solution): 0.4 μL of Z-LYTETM Tyr1 phosphorylated peptide substrate was added to 99.6 μl of 1.33× kinase buffer. • 5) ATP solution: 10 mM of ATP was diluted to 760 μM with 1.33× kinase buffer to prepare ATP solution. • 6) Development solution: Development reagent B was diluted with Development buffer at a ratio of 1:200. 3. […] 2.5 μL of 4× test compound was added to each reaction well of the 384 plate, and the corresponding volume of 8% DMSO was added to the control well. The plate was placed on ice. […] After adding the reaction components, the 384-well plate was sealed and incubated at 25-30° C. for 1 h in dark. 2) Development Reaction 5 μL of Development solution was added to each well, sealed and incubated at 25-30° C. for another 1 h in dark. 3) Reaction Stopping and Plate Reading 5 μL of stopping solution was added to each well. The Coumarin value (excitation at 400 nm, emission at 445 nm) and Fluorescein value (excitation at 400 nm, emission at 520 nm) were measured, respectively. 4. […] Coumarin emission read-out (445 nm)/Fluorescein emission read-out (520 nm); • C3 445 nm: 100% phosphorylated Coumarin emission read-out; • C3 520 nm: 100% phosphorylated Fluorescein emission read-out; • C1 445 nm: 0% phosphorylated Coumarin emission read-out; • C1 520 nm: 0% phosphorylated Fluorescein emission read-out. […] 5. IC50 values: calculated by using software XL-FitTM (version 5.3) supplied by ID Business Solutions (Guildford, UK), which is an additional software to Microsoft Excel.

[3] abbreviates: THP-1 cells, M-CSF stimulation, p-CSF1R ELISA, read-out: IC50.

Read-outs that look alike come from different tables or passages of the source.

Sequence of Recombinant human CSF1R kinase (P07333 20-972): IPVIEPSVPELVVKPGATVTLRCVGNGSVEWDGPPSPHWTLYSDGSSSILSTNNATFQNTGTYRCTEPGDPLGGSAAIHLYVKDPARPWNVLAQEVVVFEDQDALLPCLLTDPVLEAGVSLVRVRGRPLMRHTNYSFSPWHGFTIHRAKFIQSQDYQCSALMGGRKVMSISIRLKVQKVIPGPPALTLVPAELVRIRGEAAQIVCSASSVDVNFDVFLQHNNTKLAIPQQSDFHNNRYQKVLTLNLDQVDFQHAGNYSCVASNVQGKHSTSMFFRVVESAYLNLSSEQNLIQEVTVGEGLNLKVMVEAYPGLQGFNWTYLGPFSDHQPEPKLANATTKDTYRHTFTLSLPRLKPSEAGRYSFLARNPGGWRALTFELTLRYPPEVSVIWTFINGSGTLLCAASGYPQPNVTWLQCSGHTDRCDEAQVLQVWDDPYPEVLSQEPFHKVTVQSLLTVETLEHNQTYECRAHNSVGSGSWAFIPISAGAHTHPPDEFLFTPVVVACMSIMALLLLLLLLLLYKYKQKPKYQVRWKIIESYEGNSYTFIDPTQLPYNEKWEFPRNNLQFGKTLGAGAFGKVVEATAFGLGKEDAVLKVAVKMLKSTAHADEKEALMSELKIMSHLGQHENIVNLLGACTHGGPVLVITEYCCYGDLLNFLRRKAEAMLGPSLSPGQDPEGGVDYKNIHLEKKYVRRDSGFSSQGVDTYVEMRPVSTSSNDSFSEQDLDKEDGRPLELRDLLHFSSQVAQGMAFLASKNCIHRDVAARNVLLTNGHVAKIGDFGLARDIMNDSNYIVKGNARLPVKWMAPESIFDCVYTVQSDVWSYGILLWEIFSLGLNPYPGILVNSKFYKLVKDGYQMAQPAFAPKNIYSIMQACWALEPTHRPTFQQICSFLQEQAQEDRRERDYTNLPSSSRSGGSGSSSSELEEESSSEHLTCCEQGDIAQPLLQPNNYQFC
Sequence of CSF1R phosphorylation in THP-1 cells (P07333 20-972): as above

What is called IC50 is the concentration at which inhibition is half-maximal. As to `COc1cc(Oc2ccc3ncc(C)c(=O)n3c2)cnc1OCc1ccc(C2CC2)cc1F` [Compound 11], the IC50 in experiment [1] (setting [3]) worked out at 0.164 µM; in experiment [2], 61 nM.

As to `COc1ccc([C@H]2COc3cc(Oc4ccc5ncc(C)c(=O)n5c4)cnc3O2)cn1` [Compound 84], the IC50 in experiment [1] (setting [3]) amounted to 0.084 µM; in experiment [2], 8 nM.

As for `COc1ccc([C@@H]2COc3cc(Oc4ccc5nccc(=O)n5c4)cnc3O2)nc1` [Compound 78], the results for the half-inhibitory concentration (IC50) in experiment [1] (setting [3]) and in experiment [2] were 0.064 µM and 26 nM, respectively.

For the compound `COc1cc(Oc2ccc3ncc(C)c(=O)n3c2)cnc1OCc1cccc(Cl)c1` [Compound 26], the values for the IC50 in experiment [1] (setting [3]) and in experiment [2] were 0.108 µM and 6 nM, respectively.

With `Cn1cc(-c2cc(Oc3cnc4c(c3)O[C@H](c3ccc(C5CC5)cc3)CO4)ccn2)cn1` (single isomer, unassigned) [Compound 50, (R/S)-2-(4-cyclopropylphenyl)-7-((2-(1-methyl-1H-pyrazol-4-yl)pyridin-4-yl)oxy)-2,3-dihydro-[1,4]dioxino[2,3-b]pyridine], the IC50 in experiment [1] (setting [3]) came to 0.197 µM; in experiment [2], 73 nM.

In the case of `COc1ccc(COc2ccc(Oc3ccc4ncc(C)c(=O)n4c3)cn2)cc1` [Compound 1, 7-((6-((4-methoxybenzyl)oxy)pyridin-3-yl)oxy)-3-methyl-4H-pyrido[1,2-a]pyrimidin-4-one], the values for the IC50 in experiment [1] (IC50 (μM)) and in experiment [2] were 0.052 µM and 10 nM, respectively.

On to `O=c1ccnc2ccc(Oc3cnc4c(c3)OC[C@@H](c3ccc(C5CC5)cn3)O4)cn12` [Compound 72], for which the IC50 in experiment [1] (setting [3]) was determined as 0.032 µM; in experiment [2], 14 nM.

Take `COc1ccc(COc2ncc(Cc3ccc4ncc(C)c(=O)n4c3)cc2OC)cc1` [Compound 47, 7-((5-methoxy-6-((4-methoxybenzyl)oxy)pyridin-3-yl)methyl)-3-methyl-4H-pyrido[1,2-a]pyrimidin-4-one]: the IC50 in experiment [1] (setting [3]) stood at 0.012 µM; in experiment [2], 13 nM.

Consider `Cn1cc(-c2cc(Oc3cnc4c(c3)OCC(c3ccc(C5CC5)nc3)O4)ccn2)cn1` (racemic) [Compound 54, (R/S)-3-(6-cyclopropylpyridin-3-yl)-7-((2-(1-methyl-1H-pyrazol-4-yl)pyridin-4-yl)oxy)-2,3-dihydro-[1,4]dioxino[2,3-b]pyridine], for which the results for the IC50 in experiment [1] (setting [3]) and in experiment [2] were 0.022 µM and 2 nM, respectively.

Consider `COc1cc(Oc2ccc3ncc(N)c(=O)n3c2)cnc1OCc1ccc(C2CC2)cc1` [Compound 22], for which the figures for the IC50 in experiment [1] (setting [3]) and in experiment [2] were 0.009 µM and 12 nM, respectively.

Take `Cn1cc(-c2cc(Oc3cnc4c(c3)OC[C@H](c3ccc(C5CC5)cn3)O4)ccn2)cn1` [Compound 73]: the IC50 in experiment [1] (setting [3]) came to 0.017 µM; in experiment [2], 6 nM.
